Test results taken from patent US11541028B2, “Peptide pharmaceuticals for treatment of NASH and other disorders” (Mederis Diabetes LLC, priority 2018, dated 2023).
Numbered stars: 1 amine (or outer) side, 2 acyl side, 3 side chain; on linkers, the order of the positions; unused ones are H or OH. Bridge positions count the residues as written; N and C are the ends. Square brackets hold non-standard residues; d marks the D form. Side chains are listed from the residue outwards. Peptide text beside a SMILES is read from it. * marks the point of attachment. X1 = CCCCCCCCCCCCCCCCO[C@@H]1O[C@H](CO[C@H]2O[C@H](C(=O)*)[C@H](O)[C@H](O)[C@H]2O)[C@@H](O)[C@H](O)[C@H]1O; βGlcA(1-O-hexadecyl) = CCCCCCCCCCCCCCCCO[C@@H]1O[C@H](C(=O)*)[C@@H](O)[C@H](O)[C@H]1O; GlcA(1β-O-tetradecyl) = CCCCCCCCCCCCCCO[C@@H]1O[C@H](C(=O)*)[C@@H](O)[C@H](O)[C@H]1O; γGlu = O=C(O)[C@H](CCC(=O)[*:2])N[*:1]; εLys = N[C@@H](CCCCN[*:1])C(=O)[*:2]; Aib = CC(C)(N)C(=O)O

Legend:
human glucagon receptor = biological target: T1, human glucagon receptor (Homo sapiens, UniProt P47871); assay: DiscoveRx LeadHunter cellular assay, cAMP stimulation, glucagon receptor in CHO cells; assay type: cell-based
T1 construct: host or cells: CHO cells

human GLP-1 receptor = biological target: T2, human GLP-1 receptor (Homo sapiens, UniProt P43220); assay: DiscoveRx LeadHunter cellular assay, cAMP stimulation, GLP-1 receptor in CHO cells; assay type: cell-based; conditions: human GLP-1 receptor in CHO cells (DiscoveRx); read-out: EC50 cAMP GLP-1 R
T2 construct: host or cells: CHO cells
T2 sequence (P43220 24-463): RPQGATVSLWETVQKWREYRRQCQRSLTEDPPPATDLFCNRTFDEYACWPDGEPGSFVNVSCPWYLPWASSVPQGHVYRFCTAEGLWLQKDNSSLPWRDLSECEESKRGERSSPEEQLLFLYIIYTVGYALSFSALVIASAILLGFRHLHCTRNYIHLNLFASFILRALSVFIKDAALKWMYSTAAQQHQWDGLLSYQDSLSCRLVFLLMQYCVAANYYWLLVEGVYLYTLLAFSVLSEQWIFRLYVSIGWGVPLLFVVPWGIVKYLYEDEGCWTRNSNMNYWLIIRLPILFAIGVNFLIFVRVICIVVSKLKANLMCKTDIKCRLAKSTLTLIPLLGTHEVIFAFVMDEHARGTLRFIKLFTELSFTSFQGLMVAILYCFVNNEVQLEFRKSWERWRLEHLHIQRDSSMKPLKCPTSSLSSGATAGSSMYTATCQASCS

T1 sequence (P47871 26-477): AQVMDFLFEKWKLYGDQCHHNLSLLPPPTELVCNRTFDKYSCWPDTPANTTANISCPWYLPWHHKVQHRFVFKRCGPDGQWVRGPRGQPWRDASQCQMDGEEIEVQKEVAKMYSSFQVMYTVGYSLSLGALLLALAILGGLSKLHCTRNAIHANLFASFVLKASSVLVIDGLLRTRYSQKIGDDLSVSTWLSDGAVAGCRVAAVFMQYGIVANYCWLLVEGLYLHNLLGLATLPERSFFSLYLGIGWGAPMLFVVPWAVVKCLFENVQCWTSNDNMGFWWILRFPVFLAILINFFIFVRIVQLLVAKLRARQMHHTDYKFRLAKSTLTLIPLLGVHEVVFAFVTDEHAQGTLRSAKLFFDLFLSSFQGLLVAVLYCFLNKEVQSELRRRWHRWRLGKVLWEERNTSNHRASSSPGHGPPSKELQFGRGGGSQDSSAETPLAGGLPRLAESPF

SMILES | EC50 (human glucagon receptor) [nM] | EC50 (human GLP-1 receptor) [nM]
CCCCCCCCCCCCCCCCO[C@@H]1O[C@H](C(=O)NCCCC[C@H](N)C(=O)NCCCC[C@H](NC(=O)[C@H](C)NC(=O)[C@H](C)NC(=O)[C@H](CCC(N)=O)NC(=O)[C@@H]2CCCCNC(=O)CC[C@H](NC(=O)[C@H](CO)NC(=O)[C@H](Cc3ccc(O)cc3)NC(=O)[C@H](CC(=O)O)NC(=O)[C@H](CO)NC(=O)[C@@H](NC(=O)[C@H](Cc3ccccc3)NC(=O)[C@@H](NC(=O)CNC(=O)[C@H](CCC(N)=O)NC(=O)C(C)(C)NC(=O)[C@@H](N)Cc3c[nH]cn3)[C@@H](C)O)[C@@H](C)O)C(=O)N[C@@H](Cc3ccc(O)cc3)C(=O)N[C@@H](CC(C)C)C(=O)N[C@@H](CC(=O)O)C(=O)N2)C(=O)N[C@@H](CCC(=O)O)C(=O)N[C@@H](Cc2ccccc2)C(=O)N[C@H](C(=O)N[C@@H](CCC(N)=O)C(=O)N[C@@H](Cc2c[nH]c3ccccc23)C(=O)N[C@@H](CC(C)C)C(=O)N[C@@H](CC(C)C)C(=O)N[C@@H](CCC(N)=O)C(=O)N[C@H](C(N)=O)[C@@H](C)O)[C@@H](C)CC)[C@@H](O)[C@H](O)[C@H]1O [EU-A1785] (H-H[Aib]QGTFTSDYSEYLDKQAAK([εLys-βGlcA(1-O-hexadecyl)])EFIQWLLQT-NH2; lactam 12-16; N-terminus assumed) | 5.14 | 0.239
CCCCCCCCCCCCCCO[C@@H]1O[C@H](C(=O)N[C@@H](CCC(=O)NCCCC[C@H](NC(=O)[C@H](C)NC(=O)[C@H](C)NC(=O)[C@H](CCC(N)=O)NC(=O)[C@@H]2CCCCNC(=O)CC[C@H](NC(=O)[C@H](CO)NC(=O)[C@H](Cc3ccc(O)cc3)NC(=O)[C@H](CC(=O)O)NC(=O)[C@H](CO)NC(=O)[C@@H](NC(=O)[C@H](Cc3ccccc3)NC(=O)[C@@H](NC(=O)CNC(=O)[C@H](CCC(N)=O)NC(=O)C(C)(C)NC(=O)[C@@H](N)Cc3c[nH]cn3)[C@@H](C)O)[C@@H](C)O)C(=O)N[C@@H](Cc3ccc(O)cc3)C(=O)N[C@@H](CC(C)C)C(=O)N[C@@H](CC(=O)O)C(=O)N2)C(=O)N[C@@H](CCC(=O)O)C(=O)N[C@@H](Cc2ccccc2)C(=O)N[C@H](C(=O)N[C@@H](CCC(N)=O)C(=O)N[C@@H](Cc2c[nH]c3ccccc23)C(=O)N[C@@H](CC(C)C)C(=O)N[C@@H](CC(C)C)C(=O)N[C@@H](CCC(N)=O)C(=O)N[C@H](C(N)=O)[C@@H](C)O)[C@@H](C)CC)C(=O)O)[C@@H](O)[C@H](O)[C@H]1O [EU-A1787] (H-H[Aib]QGTFTSDYSEYLDKQAAK([γGlu-GlcA(1β-O-tetradecyl)])EFIQWLLQT-NH2; lactam 12-16; N-terminus assumed) | 10 | 0.246
CCCCCCCCCCCCCCCCO[C@@H]1O[C@H](CO[C@H]2O[C@H](C(=O)NCCCC[C@H](NC(=O)[C@H](C)NC(=O)[C@H](C)NC(=O)[C@H](CCC(N)=O)NC(=O)[C@@H]3CCCCNC(=O)CC[C@H](NC(=O)[C@H](CO)NC(=O)[C@H](Cc4ccc(O)cc4)NC(=O)[C@H](CC(=O)O)NC(=O)[C@H](CO)NC(=O)[C@@H](NC(=O)[C@H](Cc4ccccc4)NC(=O)[C@@H](NC(=O)CNC(=O)[C@H](CCC(N)=O)NC(=O)C(C)(C)NC(=O)[C@@H](N)Cc4c[nH]cn4)[C@@H](C)O)[C@@H](C)O)C(=O)N[C@@H](Cc4ccc(O)cc4)C(=O)N[C@@H](CC(C)C)C(=O)N[C@@H](CC(=O)O)C(=O)N3)C(=O)N[C@@H](CCC(=O)O)C(=O)N[C@@H](Cc3ccccc3)C(=O)N[C@H](C(=O)N[C@@H](CCC(N)=O)C(=O)N[C@@H](Cc3c[nH]c4ccccc34)C(=O)N[C@@H](CC(C)C)C(=O)N[C@@H](CC(C)C)C(=O)N[C@@H](CCC(N)=O)C(=O)N[C@H](C(N)=O)[C@@H](C)O)[C@@H](C)CC)[C@H](O)[C@H](O)[C@H]2O)[C@@H](O)[C@H](O)[C@H]1O [EU-A1740] (H-H[Aib]QGTFTSDYSEYLDKQAAK(X1)EFIQWLLQT-NH2; lactam 12-16; N-terminus assumed) | 3.82 | 0.077
CCCCCCCCCCCCCCCCO[C@@H]1O[C@H](C(=O)NCCCC[C@@H]2NC(=O)[C@@H](NC(=O)[C@H](CC(=O)O)NC(=O)[C@H](CC(C)C)NC(=O)[C@H](Cc3ccc(O)cc3)NC(=O)[C@H](CCCCN)NC(=O)[C@H](CO)NC(=O)[C@H](Cc3ccc(O)cc3)NC(=O)[C@H](CC(=O)O)NC(=O)[C@H](CO)NC(=O)[C@@H](NC(=O)[C@H](Cc3ccccc3)NC(=O)[C@@H](NC(=O)CNC(=O)[C@H](CCC(N)=O)NC(=O)C(C)(C)NC(=O)[C@@H](N)Cc3c[nH]cn3)[C@@H](C)O)[C@@H](C)O)CCC(=O)NCCCC[C@@H](C(=O)N[C@@H](CCC(=O)O)C(=O)N[C@@H](Cc3ccccc3)C(=O)N[C@H](C(=O)N[C@@H](CCC(=O)O)C(=O)N[C@@H](Cc3c[nH]c4ccccc34)C(=O)N[C@@H](CC(C)C)C(=O)N[C@@H](CC(C)C)C(=O)N[C@@H](CCC(N)=O)C(=O)N[C@H](C(N)=O)[C@@H](C)O)[C@@H](C)CC)NC(=O)[C@H](C)NC(=O)[C@H](C)NC2=O)[C@@H](O)[C@H](O)[C@H]1O [EU-A1842] (H-H[Aib]QGTFTSDYSKYLDEK(βGlcA(1-O-hexadecyl))AAKEFIEWLLQT-NH2; lactam 16-20; N-terminus assumed) | 2.11 | 1.21

Now those with a lower EC50 (human glucagon receptor), led by results:

EC50 (human glucagon receptor) [nM] | EC50 (human GLP-1 receptor) [nM] | SMILES
0.16 | 0.015 | CCCCCCCCCCCCO[C@@H]1O[C@H](CO[C@H]2O[C@H](C(=O)NCCCC[C@H](N)C(=O)NCCCC[C@H](NC(=O)[C@@H](NC(=O)[C@H](Cc3ccccc3)NC(=O)[C@H](CCC(=O)O)NC(=O)[C@@H]3CCCCNC(=O)CC[C@H](NC(=O)[C@H](CC(=O)O)NC(=O)[C@H](CC(C)C)NC(=O)[C@H](Cc4ccc(O)cc4)NC(=O)[C@H](CCCCN)NC(=O)[C@H](CO)NC(=O)[C@H](Cc4ccc(O)cc4)NC(=O)[C@H](CC(=O)O)NC(=O)[C@H](CO)NC(=O)[C@@H](NC(=O)[C@H](Cc4ccccc4)NC(=O)[C@@H](NC(=O)CNC(=O)[C@H](CCC(N)=O)NC(=O)C(C)(C)NC(=O)[C@@H](N)Cc4c[nH]cn4)[C@@H](C)O)[C@@H](C)O)C(=O)N[C@@H](CCC(N)=O)C(=O)N[C@@H](C)C(=O)N[C@@H](C)C(=O)N3)[C@@H](C)CC)C(=O)N[C@@H](Cc3c[nH]c4ccccc34)C(=O)N[C@@H](CC(C)C)C(=O)N[C@@H](CC(C)C)C(=O)N[C@@H](CCC(N)=O)C(=O)N[C@H](C(=O)O)[C@@H](C)O)[C@H](O)[C@H](O)[C@H]2O)[C@@H](O)[C@H](O)[C@H]1O [EU-A1611]
0.091 | 0.029 | CCCCCCCCCCCCO[C@@H]1O[C@H](C(=O)NCCCC[C@H](NC(=O)[C@@H](NC(=O)[C@H](Cc2ccccc2)NC(=O)[C@H](CCC(=O)O)NC(=O)[C@@H]2CCCCNC(=O)CC[C@H](NC(=O)[C@H](CC(=O)O)NC(=O)[C@H](CC(C)C)NC(=O)[C@H](Cc3ccc(O)cc3)NC(=O)[C@H](CCCCN)NC(=O)[C@H](CO)NC(=O)[C@H](Cc3ccc(O)cc3)NC(=O)[C@H](CC(=O)O)NC(=O)[C@H](CO)NC(=O)[C@@H](NC(=O)[C@H](Cc3ccccc3)NC(=O)[C@@H](NC(=O)CNC(=O)[C@H](CCC(N)=O)NC(=O)C(C)(C)NC(=O)[C@@H](N)Cc3c[nH]cn3)[C@@H](C)O)[C@@H](C)O)C(=O)N[C@@H](CCC(N)=O)C(=O)N[C@@H](C)C(=O)N[C@@H](C)C(=O)N2)[C@@H](C)CC)C(=O)N[C@@H](Cc2c[nH]c3ccccc23)C(=O)N[C@@H](CC(C)C)C(=O)N[C@@H](CC(C)C)C(=O)N[C@@H](CCC(N)=O)C(=O)N[C@H](C(=O)NCCOCCOCCOCCOCCOCCOCCOCCOCCC(=O)O)[C@@H](C)O)[C@@H](O)[C@H](O)[C@H]1O [EU-A1645]
0.058 | 0.017 | CCCCCCCCCCCCO[C@@H]1O[C@H](CO[C@H]2O[C@H](C(=O)N[C@@H](CCC(=O)NCCCC[C@H](NC(=O)[C@@H](NC(=O)[C@H](Cc3ccccc3)NC(=O)[C@H](CCC(=O)O)NC(=O)[C@@H]3CCCCNC(=O)CC[C@H](NC(=O)[C@H](CC(=O)O)NC(=O)[C@H](CC(C)C)NC(=O)[C@H](Cc4ccc(O)cc4)NC(=O)[C@H](CCCCN)NC(=O)[C@H](CO)NC(=O)[C@H](Cc4ccc(O)cc4)NC(=O)[C@H](CC(=O)O)NC(=O)[C@H](CO)NC(=O)[C@@H](NC(=O)[C@H](Cc4ccccc4)NC(=O)[C@@H](NC(=O)CNC(=O)[C@H](CCC(N)=O)NC(=O)C(C)(C)NC(=O)[C@@H](N)Cc4c[nH]cn4)[C@@H](C)O)[C@@H](C)O)C(=O)N[C@@H](CCC(N)=O)C(=O)N[C@@H](C)C(=O)N[C@@H](C)C(=O)N3)[C@@H](C)CC)C(=O)N[C@@H](Cc3c[nH]c4ccccc34)C(=O)N[C@@H](CC(C)C)C(=O)N[C@@H](CC(C)C)C(=O)N[C@@H](CCC(N)=O)C(=O)N[C@H](C(N)=O)[C@@H](C)O)C(=O)O)[C@H](O)[C@H](O)[C@H]2O)[C@@H](O)[C@H](O)[C@H]1O [EU-A1606]
0.048 | 0.007 | CCCCCCCCCCCCO[C@@H]1O[C@H](CO[C@H]2O[C@H](C(=O)NCCCC[C@H](N)C(=O)NCCCC[C@H](NC(=O)[C@@H](NC(=O)[C@H](Cc3ccccc3)NC(=O)[C@H](CCC(=O)O)NC(=O)[C@@H]3CCCCNC(=O)CC[C@H](NC(=O)[C@H](CC(=O)O)NC(=O)[C@H](CC(C)C)NC(=O)[C@H](Cc4ccc(O)cc4)NC(=O)[C@H](CCCCN)NC(=O)[C@H](CO)NC(=O)[C@H](Cc4ccc(O)cc4)NC(=O)[C@H](CC(=O)O)NC(=O)[C@H](CO)NC(=O)[C@@H](NC(=O)[C@H](Cc4ccccc4)NC(=O)[C@@H](NC(=O)CNC(=O)[C@H](CCC(N)=O)NC(=O)C(C)(C)NC(=O)[C@@H](N)Cc4c[nH]cn4)[C@@H](C)O)[C@@H](C)O)C(=O)N[C@@H](CCC(N)=O)C(=O)N[C@@H](C)C(=O)N[C@@H](C)C(=O)N3)[C@@H](C)CC)C(=O)N[C@@H](Cc3c[nH]c4ccccc34)C(=O)N[C@@H](CC(C)C)C(=O)N[C@@H](CC(C)C)C(=O)N[C@@H](CCC(N)=O)C(=O)N[C@H](C(N)=O)[C@@H](C)O)[C@H](O)[C@H](O)[C@H]2O)[C@@H](O)[C@H](O)[C@H]1O [EU-A1601]
